Five molecules from patent US20260176320A1, “MODULATORS OF G-PROTEIN COUPLED RECEPTORS” (priority 2018, published 2026) can be followed below.

Where two headings read alike, the source gives them in different places.

Type in all cases: cell-based
Assay [1] addresses T1, GIP-R (Homo sapiens, UniProt P48546).
T1 sequence (P48546 22-466): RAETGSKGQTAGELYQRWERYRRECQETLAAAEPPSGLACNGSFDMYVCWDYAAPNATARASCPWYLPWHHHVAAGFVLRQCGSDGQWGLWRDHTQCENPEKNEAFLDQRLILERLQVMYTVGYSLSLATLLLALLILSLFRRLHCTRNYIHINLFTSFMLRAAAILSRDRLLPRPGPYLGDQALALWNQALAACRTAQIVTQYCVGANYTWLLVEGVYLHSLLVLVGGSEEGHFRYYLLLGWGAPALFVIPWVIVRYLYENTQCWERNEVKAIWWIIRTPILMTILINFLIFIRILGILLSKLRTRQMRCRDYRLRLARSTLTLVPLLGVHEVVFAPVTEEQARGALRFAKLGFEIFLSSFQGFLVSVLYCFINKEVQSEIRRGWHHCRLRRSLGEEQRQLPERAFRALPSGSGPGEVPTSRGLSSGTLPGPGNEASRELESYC
The assay can be described thus: HitHunter cAMP assay (GIP-R). Conditions: cAMP; for Emax: read-out: (Emax) GIP-R. In a few lines:
(§1)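 Luminescent readout of cAMP by enzyme-fragment immunocompetition gave agonist concentration-response data. Cells (10,000/well) sat in HBSS buffer containing IBMX 625 μM, HEPES 10 mM and BSA 0.2%, exposed to agonist for 30 min at room temperature.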

The target in assay [2] is T2, GLP-1R (Homo sapiens, UniProt P43220). Kind of assay: HitHunter cAMP assay (GLP-1R). Conditions: cAMP; for Emax: read-out: (Emax) GLP-1R. The procedure, abridged:
as §1

For assay [3], the target named is T2, GLP-1R. Kind of assay: PathHunter β-arrestin assay. In a few lines: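 Overnight-plated cells; 0.2% BSA medium; agonist 22-pt 2× dilution series, duplicate; 90 min, 37 °C/5% CO2; detection reagent 3 h RT, dark; luminescence.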
The mark [4] stands for this setting: Table 3A, read-out: EC50 GIP-R/nM.
The mark [5] stands for this setting: Table 3A, read-out: EC50 GLP-1R/nM.
The mark [6] stands for this setting: PathHunter β-arrestin assay, read-out: β-arrestin activity EC50.

T2 sequence (P43220 24-463): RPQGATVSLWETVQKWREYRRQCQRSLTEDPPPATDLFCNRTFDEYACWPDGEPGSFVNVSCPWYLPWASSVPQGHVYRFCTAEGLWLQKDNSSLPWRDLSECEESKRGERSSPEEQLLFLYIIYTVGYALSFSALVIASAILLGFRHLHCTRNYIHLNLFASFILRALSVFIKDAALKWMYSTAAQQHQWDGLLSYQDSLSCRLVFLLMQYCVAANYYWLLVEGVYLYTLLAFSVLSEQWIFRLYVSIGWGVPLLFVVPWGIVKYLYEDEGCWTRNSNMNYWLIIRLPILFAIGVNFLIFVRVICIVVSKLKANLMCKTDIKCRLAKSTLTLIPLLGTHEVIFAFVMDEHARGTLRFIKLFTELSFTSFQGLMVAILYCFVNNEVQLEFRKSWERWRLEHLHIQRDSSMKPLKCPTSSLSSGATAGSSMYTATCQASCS

As for `CCCCCCCCCCCCCCCC(=O)N[C@@H](CCC(=O)NCCCC[C@H](NC(=O)[C@H](CO)NC(=O)[C@@H]1CCCN1C(=O)[C@@H]1CCCN1C(=O)[C@@H]1CCCN1C(=O)[C@H](C)NC(=O)CNC(=O)[C@H](CO)NC(=O)[C@H](CO)NC(=O)[C@@H]1CCCN1C(=O)CNC(=O)CNC(=O)[C@H](C)NC(=O)[C@H](CC(C)C)NC(=O)[C@H](CC(C)C)NC(=O)[C@H](Cc1c[nH]c2ccccc12)NC(=O)[C@H](CC(N)=O)NC(=O)[C@@H](NC(=O)[C@H](Cc1ccccc1)NC(=O)[C@H](CCC(=O)O)NC(=O)C(C)(C)NC(=O)[C@H](C)NC(=O)[C@H](C)NC(=O)[C@H](CCC(N)=O)NC(=O)[C@H](CCCCN)NC(=O)[C@H](CC(=O)O)NC(=O)[C@H](CC(C)C)NC(=O)[C@H](Cc1ccc(O)cc1)NC(=O)[C@@H](NC(=O)[C@H](CO)NC(=O)[C@H](Cc1ccc(O)cc1)NC(=O)[C@H](CC(=O)O)NC(=O)[C@H](CO)NC(=O)[C@@H](NC(=O)[C@H](Cc1ccccc1)NC(=O)[C@@H](NC(=O)CNC(=O)[C@H](CCC(=O)O)NC(=O)CSCC(=O)NCCn1cc(C)ccc1=O)[C@@H](C)O)[C@@H](C)O)[C@@H](C)CC)C(C)C)C(N)=O)C(=O)O` [Compound 238], the EC50 in assay [1] (EC50 GIP-R/nM, Table 3A) was 1 to 10 nM; in assay [2] (EC50 GLP-1R/nM, Table 3A), 0.1 to 1 nM; in assay [3], above 1000 nM. Moreover, the Emax was determined as 82% in assay [1] (Table 3A) and 95% in assay [2] (Table 3A).
Regarding `CCCCCCCCCCCCCCCC(=O)N[C@@H](CCC(=O)NCCCC[C@H](NC(=O)[C@H](CO)NC(=O)[C@@H]1CCCN1C(=O)[C@@H]1CCCN1C(=O)[C@@H]1CCCN1C(=O)[C@H](C)NC(=O)CNC(=O)[C@H](CO)NC(=O)[C@H](CO)NC(=O)[C@@H]1CCCN1C(=O)CNC(=O)CNC(=O)[C@H](C)NC(=O)[C@H](CC(C)C)NC(=O)[C@H](CC(C)C)NC(=O)[C@H](Cc1c[nH]c2ccccc12)NC(=O)[C@H](CC(N)=O)NC(=O)[C@@H](NC(=O)[C@H](Cc1ccccc1)NC(=O)[C@H](CCC(=O)O)NC(=O)C(C)(C)NC(=O)[C@H](C)NC(=O)[C@H](C)NC(=O)[C@H](CCC(N)=O)NC(=O)[C@H](CCCCN)NC(=O)[C@H](CC(=O)O)NC(=O)[C@H](CC(C)C)NC(=O)[C@H](Cc1ccc(O)cc1)NC(=O)[C@@H](NC(=O)[C@H](CO)NC(=O)[C@H](Cc1ccc(O)cc1)NC(=O)[C@H](CC(=O)O)NC(=O)[C@H](CO)NC(=O)[C@@H](NC(=O)[C@H](Cc1ccccc1)NC(=O)[C@@H](NC(=O)CNC(=O)[C@H](CCC(=O)O)NC(=O)[C@H](C)NC(=O)CN1CCCCC1=O)[C@@H](C)O)[C@@H](C)O)[C@@H](C)CC)C(C)C)C(N)=O)C(=O)O` [Compound 211], the Emax was 50% in assay [1] (Table 3A) and 91% in assay [2] (Table 3A). Besides, the EC50 in assay [1] (setting [4]) was 0.1 to 1 nM; in assay [2] (setting [5]), below 0.1 nM; in assay [3] (setting [6]) it was 10 to 1000 nM.
For `CCCCCCCCCCCCCCCC(=O)N[C@@H](CCC(=O)NCCCC[C@H](NC(=O)[C@H](CO)NC(=O)[C@@H]1CCCN1C(=O)[C@@H]1CCCN1C(=O)[C@@H]1CCCN1C(=O)[C@H](C)NC(=O)CNC(=O)[C@H](CO)NC(=O)[C@H](CO)NC(=O)[C@@H]1CCCN1C(=O)CNC(=O)CNC(=O)[C@H](C)NC(=O)[C@H](CC(C)C)NC(=O)[C@H](CC(C)C)NC(=O)[C@H](Cc1c[nH]c2ccccc12)NC(=O)[C@H](CC(N)=O)NC(=O)[C@@H](NC(=O)[C@H](Cc1ccccc1)NC(=O)[C@H](CCC(=O)O)NC(=O)C(C)(C)NC(=O)[C@H](C)NC(=O)[C@H](C)NC(=O)[C@H](CCC(N)=O)NC(=O)[C@H](CCCCN)NC(=O)[C@H](CC(=O)O)NC(=O)[C@H](CC(C)C)NC(=O)[C@H](Cc1ccc(O)cc1)NC(=O)[C@@H](NC(=O)[C@H](CO)NC(=O)[C@H](Cc1ccc(O)cc1)NC(=O)[C@H](CC(=O)O)NC(=O)[C@H](CO)NC(=O)[C@@H](NC(=O)[C@H](Cc1ccccc1)NC(=O)[C@@H](NC(=O)CNC(=O)[C@H](CCC(=O)O)NC(=O)CSCC(=O)NCCN1CCN(C)C(=O)C1=O)[C@@H](C)O)[C@@H](C)O)[C@@H](C)CC)C(C)C)C(N)=O)C(=O)O` [Compound 30], the EC50 in assay [1] (EC50 GIP-R/nM, Table 3) was 1 to 10 nM; in assay [1] (EC50 GIP-R/nM, Table 3A) it was 1 to 10 nM; in assay [2] (EC50 GLP-1R/nM, Table 3), 0.1 to 1 nM; in assay [2] (EC50 GLP-1R/nM, Table 3A), 0.1 to 1 nM; in assay [3] it was above 1000 nM. Moreover, the Emax was 59% in assay [1] (Table 3), 59% in assay [1] (Table 3A), 97% in assay [2] (Table 3) and 97% in assay [2] (Table 3A).
For the molecule `CCCCCCCCCCCCCCCC(=O)N[C@@H](CCC(=O)NCCCC[C@H](NC(=O)[C@H](CO)NC(=O)[C@@H]1CCCN1C(=O)[C@@H]1CCCN1C(=O)[C@@H]1CCCN1C(=O)[C@H](C)NC(=O)CNC(=O)[C@H](CO)NC(=O)[C@H](CO)NC(=O)[C@@H]1CCCN1C(=O)CNC(=O)CNC(=O)[C@H](C)NC(=O)[C@H](CC(C)C)NC(=O)[C@H](CC(C)C)NC(=O)[C@H](Cc1c[nH]c2ccccc12)NC(=O)[C@H](CC(N)=O)NC(=O)[C@@H](NC(=O)[C@H](Cc1ccccc1)NC(=O)[C@H](CCC(=O)O)NC(=O)C(C)(C)NC(=O)[C@H](C)NC(=O)[C@H](C)NC(=O)[C@H](CCC(N)=O)NC(=O)[C@H](CCCCN)NC(=O)[C@H](CC(=O)O)NC(=O)[C@H](CC(C)C)NC(=O)[C@H](Cc1ccc(O)cc1)NC(=O)[C@@H](NC(=O)[C@H](CO)NC(=O)[C@H](Cc1ccc(O)cc1)NC(=O)[C@H](CC(=O)O)NC(=O)[C@H](CO)NC(=O)[C@@H](NC(=O)[C@H](Cc1ccccc1)NC(=O)[C@@H](NC(=O)CNC(=O)[C@H](CCC(=O)O)NC(=O)CSCC(=O)NCCN1CCCS1(=O)=O)[C@@H](C)O)[C@@H](C)O)[C@@H](C)CC)C(C)C)C(N)=O)C(=O)O` [Compound 42], the Emax in assay [1] (Table 3) was in the range of 28 to 46%; in assay [1] (Table 3A), 28 to 46%; in assay [2] (Table 3), 102 to 109%; in assay [2] (Table 3A), 102 to 109%. Besides, the EC50 is 0.1 to 10 nM in assay [1] (Table 3, read-out: EC50 GIP-R/nM); 0.1 to 100 nM in assay [1] (setting [4]); below 1 nM in assay [2] (Table 3, read-out: EC50 GLP-1R/nM); below 1 nM in assay [2] (setting [5]); above 1000 nM in assay [3] (setting [6]).
For the molecule `CCCCCCCCCCCCCCCC(=O)N[C@@H](CCC(=O)NCCCC[C@H](NC(=O)[C@H](CO)NC(=O)[C@@H]1CCCN1C(=O)[C@@H]1CCCN1C(=O)[C@@H]1CCCN1C(=O)[C@H](C)NC(=O)CNC(=O)[C@H](CO)NC(=O)[C@H](CO)NC(=O)[C@@H]1CCCN1C(=O)CNC(=O)CNC(=O)[C@H](C)NC(=O)[C@H](CC(C)C)NC(=O)[C@H](CC(C)C)NC(=O)[C@H](Cc1c[nH]c2ccccc12)NC(=O)[C@H](CC(N)=O)NC(=O)[C@@H](NC(=O)[C@H](Cc1ccccc1)NC(=O)[C@H](CCC(=O)O)NC(=O)C(C)(C)NC(=O)[C@H](C)NC(=O)[C@H](C)NC(=O)[C@H](CCC(N)=O)NC(=O)[C@H](CCCCN)NC(=O)[C@H](CC(=O)O)NC(=O)[C@H](CC(C)C)NC(=O)[C@H](Cc1ccc(O)cc1)NC(=O)[C@@H](NC(=O)[C@H](CO)NC(=O)[C@H](Cc1ccc(O)cc1)NC(=O)[C@H](CC(=O)O)NC(=O)[C@H](CO)NC(=O)[C@@H](NC(=O)[C@H](Cc1ccccc1)NC(=O)[C@@H](NC(=O)CNC(=O)[C@H](CCC(=O)O)NC(=O)CSCC(=O)NCCN1CCc2ccccc2C1=O)[C@@H](C)O)[C@@H](C)O)[C@@H](C)CC)C(C)C)C(N)=O)C(=O)O` [Compound 13], the EC50 was 1 to 10 nM in assay [1] (EC50 GIP-R/nM, Table 3); 10 to 100 nM in assay [1] (EC50 GIP-R/nM, Table 3A); 1 to 10 nM in assay [2] (EC50 GLP-1R/nM, Table 3); 1 to 10 nM in assay [2] (EC50 GLP-1R/nM, Table 3A); above 1000 nM in assay [3]. The Emax in assay [1] (Table 3) amounted to 25%; in assay [1] (Table 3A) it was 25%; in assay [2] (Table 3), 69%; in assay [2] (Table 3A) it was 69%.
